Assay results reported in the NIST ThermoML archive (doi:10.1021/acs.jced.5b00662).
Values joined by “and” are separate entries in the source; they are usually repeats but may differ in a detail not shown here. Equal values may be shown once.

Tests used:
[1] = refractive index (Na D-line) (dimensionless); settings: 101.33 kPa, Liquid, Standard Abbe refractometry
[2] = 101.33 kPa, Liquid; for speed of sound: Sing-around technique in a fixed-path interferometer; for mass density: Vibrating tube method; for viscosity: Concentric cylinders viscometry

CCOCCO [2-ethoxyethan-1-ol]
Settings | mass density, [2] | refractive index, [1] | speed of sound, [2] [m/s] | viscosity, [2] [mPa·s]
283.15 K | 941.2 kg/m3 | 1.4149 | 1360.6 | –
288.15 K | 936.8 kg/m3 and 936.7 kg/m3 | 1.4125 | 1342 | 2.314
293.15 K | 932.3 kg/m3 and 932.2 kg/m3 | 1.41024 | 1323.9 | 2.066
298.15 K | 927.6 kg/m3 and 927.7 kg/m3 | 1.40803 | 1305.7 | 1.845
303.15 K | 923.1 kg/m3 | 1.40613 | 1286.7 | 1.661
308.15 K | 918.5 kg/m3 | – | 1268.6 | 1.503
313.15 K | 913.8 kg/m3 and 913.9 kg/m3 | 1.4018 | 1250.2 | 1.365
318.15 K | 909.3 kg/m3 | – | – | 1.247
323.15 K | 904.5 kg/m3 and 904.6 kg/m3 | 1.39691 | 1213.8 | 1.143
328.15 K | 899.9 kg/m3 | – | – | 1.051
333.15 K | 895 kg/m3 and 895.1 kg/m3 | 1.39271 | 1178.5 | 0.962
338.15 K | 890.4 kg/m3 | – | – | 0.895
343.15 K | 885.5 kg/m3 and 885.2 kg/m3 | 1.38849 | 1143.7 | 0.829
348.15 K | 880.7 kg/m3 | – | – | 0.77
353.15 K | 875.8 kg/m3 | 1.3838 | – | 0.725
358.15 K | 871 kg/m3 | – | – | 0.666
363.15 K | 866.1 kg/m3 | – | – | 0.623
368.15 K | 861.2 kg/m3 | – | – | 0.584
373.15 K | 856.3 kg/m3 | – | – | 0.518

CCOCCOCCO [3,6-dioxa-1-octanol]
Settings | mass density, [2] | refractive index, [1] | speed of sound, [2] [m/s] | viscosity, [2] [mPa·s]
283.15 K | 997.1 kg/m3 | 1.4311 | 1428.9 | –
288.15 K | 993.9 kg/m3 and 992.6 kg/m3 | 1.42916 | 1410.5 | 5.157
293.15 K | 989.4 kg/m3 and 988.2 kg/m3 | 1.42711 | 1392.6 | 4.466
298.15 K | 983.7 kg/m3 and 984.9 kg/m3 | 1.42501 | 1374.6 | 3.811
303.15 K | 979.3 kg/m3 and 980.4 kg/m3 | 1.4229 | 1356.8 | 3.328
308.15 K | 974.8 kg/m3 and 976 kg/m3 | – | 1339 | 2.933
313.15 K | 970.3 kg/m3 and 971.5 kg/m3 | 1.41887 | 1321.7 | 2.592
318.15 K | 967 kg/m3 | – | – | 2.331
323.15 K | 961.3 kg/m3 and 962.5 kg/m3 | 1.41483 | 1286.9 | 2.099
328.15 K | 958.1 kg/m3 | – | – | 1.901
333.15 K | 952.2 kg/m3 and 953.5 kg/m3 | 1.41082 | 1252.6 | 1.718
338.15 K | 949 kg/m3 | – | – | 1.583
343.15 K | 944.4 kg/m3 and 943.1 kg/m3 | 1.40683 | 1218.9 | 1.456
348.15 K | 939.9 kg/m3 | – | – | 1.343
353.15 K | 935.3 kg/m3 | 1.40276 | – | 1.225
358.15 K | 930.7 kg/m3 | – | – | 1.153
363.15 K | 926.1 kg/m3 | – | – | 1.072
368.15 K | 921.4 kg/m3 | – | – | 0.997
373.15 K | 916.8 kg/m3 | – | – | 0.921

CCOCCOCCOCC [diethylene glycol diethyl ether]
Settings | mass density, [2] | refractive index, [1] | speed of sound, [2] [m/s] | viscosity, [2] [mPa·s]
283.15 K | 917 kg/m3 | 1.41658 | 1303.4 | –
288.15 K | 914.4 kg/m3 and 912.2 kg/m3 | 1.41428 | 1283.2 | 1.483
293.15 K | 909.6 kg/m3 and 907.4 kg/m3 | 1.41202 | 1263.1 | 1.353
298.15 K | 902.6 kg/m3 and 904.7 kg/m3 | 1.40978 | 1243.3 | 1.254
303.15 K | 897.7 kg/m3 and 899.8 kg/m3 | 1.40749 | 1223.4 | 1.156
308.15 K | 892.9 kg/m3 and 895 kg/m3 | – | 1203.9 | 1.067
313.15 K | 888.1 kg/m3 and 890.1 kg/m3 | 1.40296 | 1184.1 | 0.9874
318.15 K | 885.3 kg/m3 | – | – | 0.916
323.15 K | 878.4 kg/m3 and 880.4 kg/m3 | 1.39838 | 1145.1 | 0.852
328.15 K | 875.6 kg/m3 | – | – | 0.795
333.15 K | 868.7 kg/m3 and 870.7 kg/m3 | 1.39382 | 1107.9 | 0.744
338.15 K | 865.9 kg/m3 | – | – | 0.699
343.15 K | 861 kg/m3 and 858.9 kg/m3 | 1.38929 | 1071.6 | 0.658
348.15 K | 856.1 kg/m3 | – | – | 0.621
353.15 K | 851.2 kg/m3 | 1.38474 | – | 0.587
358.15 K | 846.3 kg/m3 | – | – | 0.556
363.15 K | 841.4 kg/m3 | – | – | 0.526
368.15 K | 836.5 kg/m3 | – | – | 0.498
373.15 K | 831.6 kg/m3 | – | – | 0.47

OCCOCCO [diethylene glycol]
Settings | mass density, [2] | refractive index, [1] | speed of sound, [2] [m/s] | viscosity, [2] [mPa·s]
283.15 K | 1123.3 kg/m3 | 1.45019 | 1615.9 | –
288.15 K | 1121.4 kg/m3 and 1119.8 kg/m3 | 1.4486 | 1603.6 | 47.14
293.15 K | 1117.8 kg/m3 and 1116.2 kg/m3 | 1.44702 | 1591.4 | 36.02
298.15 K | 1112.7 kg/m3 and 1114.2 kg/m3 | 1.4454 | 1579.2 | 28.23
303.15 K | 1109.1 kg/m3 and 1110.6 kg/m3 | 1.44379 | 1566.9 | 22.48
308.15 K | 1105.5 kg/m3 and 1107 kg/m3 | – | 1554.9 | 18.18
313.15 K | 1101.9 kg/m3 and 1103.4 kg/m3 | 1.44068 | 1542.8 | 14.85
318.15 K | 1099.7 kg/m3 | – | – | 12.4
323.15 K | 1094.7 kg/m3 and 1096.1 kg/m3 | 1.43745 | 1518.8 | 10.42
328.15 K | 1092.5 kg/m3 | – | – | 8.849
333.15 K | 1087.4 kg/m3 and 1088.8 kg/m3 | 1.43424 | 1494.5 | 7.57
338.15 K | 1085.2 kg/m3 | – | – | 6.561
343.15 K | 1081.5 kg/m3 and 1080 kg/m3 | 1.43105 | 1470.1 | 5.718
348.15 K | 1077.8 kg/m3 | – | – | 5.019
353.15 K | 1074.1 kg/m3 | 1.42786 | – | 4.429
358.15 K | 1070.3 kg/m3 | – | – | 3.944
363.15 K | 1066.6 kg/m3 | – | – | 3.527
368.15 K | 1062.8 kg/m3 | – | – | 3.169
373.15 K | 1059 kg/m3 | – | – | 2.871

OCCOCCOCCO [triethylene glycol]
Settings | mass density, [2] | refractive index, [1] | speed of sound, [2] [m/s] | viscosity, [2] [mPa·s]
283.15 K | 1131.3 kg/m3 | 1.45944 | 1658.7 | –
288.15 K | 1128.6 kg/m3 and 1127.4 kg/m3 | 1.45774 | 1642.8 | 63.57
293.15 K | 1124.6 kg/m3 and 1123.5 kg/m3 | 1.4561 | 1627.2 | 48.05
298.15 K | 1119.7 kg/m3 and 1120.7 kg/m3 | 1.45447 | 1611.5 | 37.27
303.15 K | 1115.8 kg/m3 and 1116.8 kg/m3 | 1.45283 | 1596.2 | 29.41
308.15 K | 1111.9 kg/m3 and 1112.9 kg/m3 | – | 1581.1 | 23.6
313.15 K | 1108 kg/m3 and 1109 kg/m3 | 1.44955 | 1566 | 19.16
318.15 K | 1105.1 kg/m3 | – | – | 15.86
323.15 K | 1100.2 kg/m3 and 1101.2 kg/m3 | 1.44626 | 1536.3 | 13.25
328.15 K | 1097.3 kg/m3 | – | – | 11.19
333.15 K | 1092.4 kg/m3 and 1093.4 kg/m3 | 1.44293 | 1506.8 | 9.528
338.15 K | 1089.5 kg/m3 | – | – | 8.221
343.15 K | 1085.6 kg/m3 and 1084.5 kg/m3 | 1.43956 | 1477.5 | 7.137
348.15 K | 1081.7 kg/m3 | – | – | 6.243
353.15 K | 1077.8 kg/m3 | 1.43622 | – | 5.487
358.15 K | 1073.8 kg/m3 | – | – | 4.874
363.15 K | 1069.8 kg/m3 | – | – | 4.346
368.15 K | 1065.9 kg/m3 | – | – | 3.896
373.15 K | 1061.9 kg/m3 | – | – | 3.515
